Measured values taken from paper PMC9050848, “Carbamoyl-N-aryl-imine-urea: a new framework to obtain a putative leishmanicidal drug-candidate” (RSC Advances, 2020).

How the values were obtained:
[1] = tested on: L. amazonensis intracellular amastigotes; experiment: Leishmanicidal activity against intracellular amastigote forms of L. amazonensis in J774.A1 macrophages; type: cell-based
Protocol: Considering that L. amazonensis is one of the causative species of cutaneous leishmaniasis in Brazil,[20] we have investigated the leishmanicidal effect of compounds 9a–e and 10a–e against L. amazonensis amastigotes forms. Initially, all compounds were evaluated at 30 μM. […] Then, they were selected to determine their IC50 value for intracellular amastigote forms of L. amazonensis.
Promastigotes of L. amazonensis (MHOM/BR/77/LTB0016) were obtained from Dr Eduardo Caio Torres dos Santos at Oswaldo Cruz Institute – Fiocruz. Promastigotes of L. braziliensis (MHOM/BR/01/BA788) were obtained from Dr Valéria de Matos Borges at Gonçalo Moniz Research Center – Fiocruz. The parasites were maintained in vitro in Schneider's medium, supplemented with 10% FBS and 2% human urine at 27 °C in BOD incubator.
Initially, compounds 9a–e and 10a–e were evaluated at screening concentration of 30 μM against L. amazonensis, using DMSO 0.03% as vehicle control, since this was the DMSO concentration (vehicle) remaining in each well with the tested compounds. […] Vehicle control used was DMSO 0.1%, since this was the concentration of DMSO (vehicle) existing in each well with the tested substances in the highest concentration used.
To assess the activity of the test derivatives against the amastigote stage of L. amazonensis and L. braziliensis the model of infection in coverglass was realized.[31] The murine macrophages (J774.A1 cell line) were prepared in 24-well cell culture plate (flat bottom, clear, Corning) at 2 × 10^5 adherent cells per well, infected with 2 × 10^6 promastigotes in glass coverslips placed inside 1 mL medium culture. The cultures were cultured or not with the test derivatives or reference drugs, and kept for 24 h at 37 °C, 5% CO2. After 24 h of incubation, the coverslips were washed, stained with Giemsa–May–Grünwald, and intracellular amastigotes were counted in 100 macrophages, using an optical microscope, on the objective of 100×. Thus, during the counting of 100 macrophages, the amount of amastigotes present within these defence cells was also determined. Data obtained from in vitro experiments were expressed as the mean ± S.E.M. of duplicate cultures of representative assays. Statistical differences between the treated and the control groups were evaluated by ANOVA and Dunnett hoc tests. Differences with a p value < 0.05 or lower were considered significant.

L. amazonensis = experiment: Murine model of cutaneous leishmaniasis induced by L. amazonensis (efficacy); type: in vivo, BALB/c mice; conditions: 30 μmol per kg per day × 28 days
Protocol: So, BALB/c mice infected with L. amazonensis were treated during 28 days with compound 10e (30 μmol per kg per day, i.p.) or with the standards miltefosine (30 μmol per kg per day, p.o.) and meglumine antimoniate (30 μmol per kg per day, i.p.).
This study (protocol number 2013.02) was approved by the Ethics Committee for Animal Experimentation of the Federal University of Alagoas (Brazil). All animals received humane care in compliance with the ‘Principles of laboratory animal care’ formulated by the National Society for Medical Research and the ‘Guide for the care and use of laboratory animals’ prepared by the National Academy of Sciences (Washington, DC). Then, 1 × 10^5 stationary promastigotes (5 days of culture in Schneider's medium) of L. amazonensis were inoculated subcutaneously into the right ear dermis of 6 week-old female BALB/c mice weighing ca. 20 g. and later treated with 10e (i.p.), miltefosine (p.o.) or meglumine antimoniate (i.p.) at 30 μmol kg^−1 × 28 days. The vehicle to solubilize 10e (LASSBio-1736) and standard drugs was Tween 20 (50 μL) and sterile water for injection, which was also administrated by i.p. route in two controls groups (non-infected control and infected control). The lesion size was measured using a paquimeter.[32] The parasite loads of infected ears and draining lymph nodes were determined using a quantitative limiting-dilution assay.[33] Toxicity was also evaluated due to alterations on spleen weight and by biochemistry dosages in plasma, performed according to the manufacturer's instructions (Doles, BRA). Data obtained from experiments were expressed as the mean ± S.E.M. and statistical differences between the treated and the vehicle groups of experiments were evaluated by ANOVA and Dunnett hoc tests.

[2] = Chemical stability in PBS pH 7.4; type: physicochemical; conditions: PBS pH 7.4, 37 °C, 0 and 240 minutes
Protocol: To investigate the potential plasma instability of the carbamoyl-N-arylimine-urea subunit, designed as a new peptide mimetic framework, compound 10e (LASSBio-1736) was selected to investigate its plasma stability,[21,22] previously to the evaluation of its in vivo leishmanicidal effect. Quantitation of 10e (LASSBio-1736), benzocaine standard (positive control; it means a substrate drug for plasma hydrolysis) and ketoconazole (internal standard) was determined by UPLC-MS/MS, after incubation of the compounds at 0, 30, 60, 120 and 240 min with rat plasma, and measuring the peak areas in three different experiments. […]
final R1 factor for I >2σ(I ) 0.0594 final wR 2 factor for all data 0.1689 largest diff. peak / hole (e/Å 3) 0.220 and -0.256
Chemical stability pH 7.4
In a 10 mL tube, 5μL (250 ng/mL) of LASSBio-1736 (10e) (stock concentration = 10000 ng/mL solubilized in DMSO) was added in 195μ L of PBS (pH=7.4), and the mixture was placed in a shaker at 37 °C under vigorous stirring for 0 and 240 minutes. […]
The samples were resuspended with 100 μL of a methanol:water mixture (7:3) […] and were placed in 2 mL vials, and analyzed by UPLC-MS. […]

[3] = L. amazonensis amastigotes, ratio of IC50 values

O=C(N/N=C/c1ccc(C(F)(F)F)cc1)NNC(=O)c1ccc(Cl)cc1Cl [LASSBio-1736 (10e), 2,4-dichloro-phenylcarbamoyl-N-4-trifluoromethylphenylimine-urea]
Times less potent than miltefosine [1, 3]: ~4.0 times
Times less potent than pentamidine [1, 3]: about 2.5 times
Effect on the number of intracellular amastigotes ([1]; L. amazonensis, screening concentration 30 μM): decreased the number of intracellular amastigotes
IC50 ([1]; Leishmania amazonensis, J774.A1, 24 h, read-out: IC50 (concentration required to give 50% death of parasites)): 84 ± 0.3 µM
Emax ([1]; Leishmania amazonensis, J774.A1, L. amazonensis intracellular amastigotes, maximum toxicity vs 0.1% DMSO group, read-out: Maximum effect (% ± S.E.M.)): 57.6 ± 0.2%
Appearance of lesions on the first day after end of treatment (photographs) (L. amazonensis): complete healing of the nodules and ulcers
Lesion sizes of infected ear (L. amazonensis; 10e and meglumine antimoniate i.p., miltefosine p.o.): reduced the lesion sizes of infected ear like miltefosine
L. amazonensis titer in draining lymph node (L. amazonensis; limiting-dilution assay): not reduced the L. amazonensis titer in draining lymph node
Parasite load in infected ear (L. amazonensis; limiting-dilution assay): decreased parasite load in infected ear
Stability to hydrolysis at PBS (pH 7.4) [2]: stable to hydrolysis
